Measured values as given in patent publication US20220031680A1, “Donecopride As Neuroprotective Agent In the Treatment of Neurodegenerative Diseases” (priority 2018, published 2022).
“And” between values parts separate entries of the source, which are not always exact repeats. Identical values can stand only once.

System: rat primary cortical neurons after glutamate injury
Experiment: Survival and neurite network of primary cortical neurons after glutamate injury
Type: cell-based
Details: glutamate 20 μM 20 min; for concentrations significantly protecting cortical neurons from death: compound 1 h before and 48 h after; for concentration of maximal effect on neurite network: cortical neurons
Description: The present study assesses the neuroprotective effect of MR36014 and MR33583 (at 4 concentrations) in rat primary cortical neurons after glutamate injury. The test compounds were pre-incubated for 1 hour before glutamate application (20 μM for 20 min). The neuroprotective effect (survival and neurite network) of test compounds were investigated.
Rat cortical neurons were cultured as described by Callizot et al. (2013) J. Neurosci. Res. 91:706-716. Pregnant female rat (Wistar) of 15 days of gestation were killed using a deep anesthesia with CO2 chamber and a cervical dislocation. Briefly, fetuses were collected and immediately placed in ice-cold L15 Leibovitz medium with a 2% penicillin (10,000 U/mL) and streptomycin (10 mg/mL) solution (PS) and 1% bovine serum albumin (BSA). Cortex were treated for 20 min at 37° C. with a trypsin-EDTA solution at a final concentration of 0.05% trypsin and 0.02% EDTA. The dissociation was stopped by addition of Dulbecco's modified Eagle's medium (DMEM) with 4.5 g/l of glucose, containing DNAse I grade II (final concentration 0.5 mg/ml) and 10% fetal calf serum (FCS). Cells were mechanically dissociated by three forced passages through the tip of a 10-ml pipette. Cells were then centrifuged at 515×g for 10 min at 4° C. The supernatant was discarded, and the pellet was resuspended in a defined culture medium consisting of Neurobasal medium with a 2% solution of B27 supplement, 2 mmol/I L-glutamine, 2% PS solution, and 10 ng/ml brain-derived neurotrophic factor (BDNF). Viable cells were counted in a Neubauer cytometer, using the trypan blue exclusion test.
The cells were seeded at a density of 25,000 per well in 96-well plates precoated with poly-L-lysine and were cultured at 37° C. in an air (95%)-CO2 (5%) incubator.
Pre-incubation: On day 13 of culture, the compounds were dissolved in the culture medium and pre-incubated with primary cortical neurons for 1 hour, before glutamate exposure.
Injury: 1 hour after test compound incubation, glutamate was added to a final concentration of 20 μM diluted in control medium still in presence of the test compounds for 20 min. After 20 min, glutamate was washed out and fresh culture medium with the test compounds were added for additional 48 hours.
Test compounds were tested in 96-well plate (n=6 culture wells per condition). The following conditions were assessed: […]
The following read-outs will be investigated: • The total neuron survival (MAP-2 positive, number), (data will be expressed into mean number of neurons of 30 pictures per well). • The total neurite network (MAP-2 in μm), (data will be expressed into mean of neurons of 30 pictures per well).

| Structure (SMILES) | concentrations significantly protecting cortical neurons from death | concentration of maximal effect on neurite network [nM] |
| --- | --- | --- |
| COc1cc(N)c(F)cc1C(=O)CCC1CCN(CC2CCCC2)CC1 [MR33583] | 50 nM and 100 nM | 50 |
| COc1cc(N)c(F)cc1C(=O)CCC1CCN(CC2CCCCCC2)CC1 [MR36014] | 1 nM | 1 |
